Results published in ChEMBL document CHEMBL1156541 (Bioorg Med Chem, 2008).

Experiments:
[1] = Octanol-water partition coefficient, log P of the compound; type: physicochemical
[2] = target: cGMP-specific 3',5'-cyclic phosphodiesterase (Homo sapiens, UniProt O76074); experiment: Inhibition of PDE5

| IC50 [2] [µM] | Structure (SMILES) | other results |
| --- | --- | --- |
| 2 | CCCCN1C(=O)[C@H]2Cc3c(n(C)c4ccccc34)[C@H](c3ccc(OC)cc3)N2C1=O (relative stereo) | – |
| 0.0501 | CCCCN1C(=O)[C@H]2Cc3c([nH]c4ccccc34)[C@@H](c3ccc(Cl)cc3)N2C1=O (relative stereo) | – |
| 0.0912 | CCCCN1C(=O)[C@H]2Cc3c([nH]c4ccccc34)[C@@H](c3cccnc3)N2C1=O (relative stereo) | – |
| 0.302 | CCCCN1C(=O)[C@H]2Cc3c([nH]c4ccccc34)[C@H](c3ccc(C#N)cc3)N2C1=O (relative stereo) | – |
| 0.0501 | CCCCN1C(=O)[C@H]2Cc3c([nH]c4ccccc34)[C@@H](c3cccc(Cl)c3)N2C1=O (relative stereo) | – |
| 0.912 | CCCCN1C(=O)[C@H]2Cc3c([nH]c4ccccc34)[C@@H](c3ccc(C#N)cc3)N2C1=O (relative stereo) | – |
| 0.1 | CCCCN1C(=O)[C@H]2Cc3c([nH]c4ccccc34)[C@@H](c3ccoc3)N2C1=O (relative stereo) | – |
| 0.0302 | CCCCN1C(=O)[C@H]2Cc3c([nH]c4ccccc34)[C@@H](c3ccsc3)N2C1=O (relative stereo) | – |
| 0.302 | CCCCN1C(=O)[C@H]2Cc3c([nH]c4ccccc34)[C@@H](c3ccncc3)N2C1=O (relative stereo) | – |
| 0.02 | CCCCN1C(=O)[C@H]2Cc3c([nH]c4ccccc34)[C@H](c3ccccc3)N2C1=O (relative stereo) | – |
| 0.02 | CCCCN1C(=O)[C@H]2Cc3c([nH]c4ccccc34)[C@H](c3ccc(Cl)cc3)N2C1=O (relative stereo) | – |
| 0.0603 | CCCCN1C(=O)[C@H]2Cc3c([nH]c4ccccc34)[C@@H](c3ccccc3)N2C1=O (relative stereo) | – |
| 0.0302 | CCOc1ccc([C@H]2c3[nH]c4ccccc4c3C[C@@H]3C(=O)N(CCN(C)C)C(=O)N23)cc1 (relative stereo) | – |
| 0.01 | CCOc1ccc([C@@H]2c3[nH]c4ccccc4c3C[C@@H]3C(=O)N(C)C(=O)N23)cc1 (relative stereo) | – |
| 0.00603 | CCOc1ccc([C@H]2c3[nH]c4ccccc4c3C[C@@H]3C(=O)N(CCc4ccccn4)C(=O)N23)cc1 (relative stereo) | – |
| 0.1 | CCOc1ccc([C@H]2c3[nH]c4ccccc4c3C[C@@H]3C(=O)N(CCn4cccc4)C(=O)N23)cc1 (relative stereo) | – |
| 0.0501 | CCCCN1C(=O)[C@H]2Cc3c([nH]c4ccccc34)[C@H](c3cccc(Cl)c3)N2C1=O (relative stereo) | – |
| 1 | CCCCN1C(=O)[C@H]2Cc3c([nH]c4ccccc34)[C@H](c3ccccc3OC)N2C1=O (relative stereo) | – |
| 0.00708 | CCOc1ccc([C@H]2c3[nH]c4ccccc4c3C[C@@H]3C(=O)N(CC)C(=O)N23)cc1 (relative stereo) | – |
| 0.01 | CCOc1ccc([C@@H]2c3[nH]c4ccccc4c3C[C@@H]3C(=O)N(CC)C(=O)N23)cc1 (relative stereo) | – |

Second part, the compound before the results:

| Structure (SMILES) | IC50 [2] [µM] | other results |
| --- | --- | --- |
| CCCc1nc(C)c2c(=O)[nH]c(-c3cc(S(=O)(=O)N4CCN(CC)CC4)ccc3OCC)nn12 | – | logP [1]: 2.56 |
| CCCc1nn(C)c2c(=O)[nH]c(-c3cc(S(=O)(=O)N4CCN(C)CC4)ccc3OCC)nc12 | – | logP [1]: 2.51 |
| CCCc1n[nH]c2c(=O)[nH]c(-c3ccccc3)nc12 | 0.0813 | – |
| CCCCN1C(=O)c2nc(-c3cc(S(=O)(=O)N4CCN(C)CC4)ccc3OCC)[nH]c(=O)c2C1=O | – | logP [1]: 1.86 |
| CCCCN1C(=O)[C@H]2CC=C(c3cc(S(=O)(=O)N4CCN(C)CC4)ccc3OCC)CN2C1=O | – | logP [1]: 2.4 |
| CCCCN1C(=O)[C@H]2CC=C(c3cc(S(=O)(=O)N4CCN(CC)CC4)ccc3OCC)CN2C1=O | – | logP [1]: 2.77 |
| CCCc1nn(C)c2c(=O)[nH]c(-c3cc(S(=O)(=O)N4CCC(C(N)=O)CC4)ccc3OCC)nc12 | 0.00209 | – |
| CCOc1ccc(S(=O)(=O)N2CCN(CC)CC2)cc1C1=CC[C@@H]2C(=O)N(C)CC(=O)N2C1 | – | logP [1]: 0.792 |
| CCOc1ccc([C@@H]2c3[nH]c4ccccc4c3C[C@@H]3C(=O)N(C4CCCCC4)C(=O)N23)cc1 | 0.00708 | – |
| CCCc1nn(C)c2c(=O)[nH]c(-c3ccccc3)nc12 | 4.47 | – |
| CCOc1ccc(S(=O)(=O)N2CCN(C)CC2)cc1C1=CC[C@@H]2C(=O)N(C)CC(=O)N2C1 | – | logP [1]: 0.416 |
| CCCCN1C(=O)[C@H]2CNC(c3cc(S(=O)(=O)N4CCN(CC)CC4)ccc3OCC)=NN2C1=O | – | logP [1]: 1.25 |
| CCCCN1C(=O)[C@H]2C(=O)NC(c3cc(S(=O)(=O)N4CCN(CC)CC4)ccc3OCC)=NN2C1=O | – | logP [1]: 0.574 |
| CCCCN1C(=O)C2=C(N=C(c3cc(S(=O)(=O)N4CCN(C)CC4)ccc3OCC)NC2)C1=O | – | logP [1]: 0.984 |
| CCCc1nn(C)c2c(=O)[nH]c(-c3ccccc3[N+](=O)[O-])nc12 | – | pIC50 (Inhibition of PDE5): 5.36 |
| CCCc1nn(C)c2c(=O)[nH]c(-c3ccccc3OCC3CC3)nc12 | – | pIC50 (Inhibition of PDE5): 6.02 |
| CCCc1nn(C)c2c(=O)[nH]c(-c3ccccc3O)nc12 | 1 | – |
| CN1CC(=O)N2[C@H](c3ccc4c(c3)OCO4)c3[nH]c4ccccc4c3C[C@@H]2C1=O | – | logP [1]: 2.36 |
| CCCc1nn(C)c2c(=O)[nH]c(-c3cc(S(=O)(=O)N4CCNCC4)ccc3OCC)nc12 | – | pIC50 (Inhibition of PDE5): 8.24 |
| CCOc1ccc([C@@H]2c3[nH]c4ccccc4c3C[C@@H]3C(=O)N(Cc4ccccc4)C(=O)N23)cc1 (relative stereo) | 0.00398 | – |
| CCOc1ccc([C@H]2c3[nH]c4ccccc4c3C[C@@H]3C(=O)NC(=O)N23)cc1 (relative stereo) | 0.02 | – |
| CCOc1ccc([C@H]2c3[nH]c4ccccc4c3C[C@@H]3C(=O)N(Cc4ccccc4)C(=O)N23)cc1 (relative stereo) | 0.0182 | – |
| CCOc1ccc([C@H]2c3[nH]c4ccccc4c3C[C@@H]3C(=O)N(C4CCCCC4)C(=O)N23)cc1 (relative stereo) | 0.00302 | – |
| CCOc1ccc([C@H]2c3[nH]c4ccccc4c3C[C@@H]3C(=O)N(Cc4cccnc4)C(=O)N23)cc1 (relative stereo) | 0.02 | – |
| CCCc1nn(C)c2c(=O)[nH]c(-c3cc(S(=O)(=O)N4CCN(CCO)CC4)ccc3OCC)nc12 [LODENAFIL] | 0.00191 | – |
